Source: EP1501514B1, “PROTEIN KINASE MODULATORS AND METHODS OF USE” (Exelixis, Inc., priority 2002, dated 2003)

Biological target: T1, Chk1 (Homo sapiens, UniProt O14757)
T1 construct: purchased Upstate Biotechnology
T1 sequence (O14757 1-476): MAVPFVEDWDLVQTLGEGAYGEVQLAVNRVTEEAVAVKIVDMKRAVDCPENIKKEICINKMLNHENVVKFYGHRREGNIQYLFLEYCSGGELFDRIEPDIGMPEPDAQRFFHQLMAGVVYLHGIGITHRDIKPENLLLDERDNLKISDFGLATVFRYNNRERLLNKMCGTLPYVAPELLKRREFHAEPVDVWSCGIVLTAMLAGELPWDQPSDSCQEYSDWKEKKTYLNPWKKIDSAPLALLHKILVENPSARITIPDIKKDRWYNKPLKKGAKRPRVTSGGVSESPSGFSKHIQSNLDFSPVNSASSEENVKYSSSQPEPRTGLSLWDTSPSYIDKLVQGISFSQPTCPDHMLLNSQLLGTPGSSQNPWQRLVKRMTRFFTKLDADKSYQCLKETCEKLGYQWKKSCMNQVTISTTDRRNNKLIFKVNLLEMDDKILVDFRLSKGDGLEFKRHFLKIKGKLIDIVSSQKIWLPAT
Assay: Chk1 assay: incorporation of γ-33P ATP into immobilized myelin basic protein
Assay type: biochemical
Settings: Table 11; Chk1 only
Procedure: Chk1 and Chk2 assays were performed by measuring incorporation of γ-^33P ATP into immobilized myelin basic protein (MBP). High binding white 384 well plates (Greiner) were coated with MBP (Sigma #M-1891) by incubation of 60ul/well of 20µg/ml MBP in Tris-buffered saline (TBS; 50mM Tris pH 8.0, 138mM NaCl, 2.7mM KCl) for 24 hours at 4° C. Plates were washed 3X with 100µl TBS. Kinase reactions were carried out in a total volume of 34µl in kinase buffer (5mM Hepes pH 7.6, 15mM NaCl, 0.01% bovine gamma globulin (Sigma #I-5506), 10mM MgCl2, 1mM DTT, 0.02% TritonX-100). Compound dilutions were performed in DMSO and added to assay wells to a final DMSO concentration of 1%. Each data point was measured in duplicate, and at least two duplicate assays were performed for each individual compound determination. Chkl and Chk2 enzymes (Upstate Biotechnology) were added to final concentrations of 10nM (Chkl) or 20nM (Chk2). A mixture of unlabeled ATP and γ-^33P ATP was added to start the reaction (2x10^6 cpm of γ-^33P ATP per well (3000Ci/mmole) and either 10µM or 30µM unlabeled ATP (for Chkl and Chk2 assays respectively). The reaction was carried out for 1 hour at room temperature with shaking. Plates were washed 7x with TBS, followed by the addition of 50µl/well scintillation fluid (Wallac). Plates were read using a Wallac Trilux counter. This is only one format of such assays, various other formats are possible, as known to those skilled in the art.
The above assay procedure can be used to determine the IC50 for inhibition and/or the inhibition constant Ki. The IC50 is defined as the concentration of compound required to reduce the enzyme activity by 50% under the conditions of the assay. […] The Ki for a compound may be determined from the IC50 based on three assumptions. First, only one compound molecule binds to the enzyme and there is no cooperativity. […] Third, the enzymatic rate of the enzyme-inhibitor complex is zero. The rate (i.e., compound concentration) data are fitted to the equation: V = Vmax E0 [I-((E0+I0+Kd)-sqrt(((E0+I0+Kd))^2 -4E0 I0))/(2E0)] [formula]

IC50 | SMILES
1000 to 10000 nM | CNC(=O)c1nc(-c2ccc(OC)cc2)cnc1N [compound 54, 3-amino-N-methyl-6-[4-(methyloxy)phenyl]pyrazine-2-carboxamide]
50 to 1000 nM | CNC(=O)c1nc(-c2cccc(-c3ccccc3)c2)cnc1N [compound 55, 3-amino-6-biphenyl-3-yl-N-methylpyrazine-2-carboxamide]
50 to 1000 nM | CNC(=O)c1nc(-c2cccc(NC(C)=O)c2)cnc1N [compound 56, 6-[3-(acetylamino)phenyl]-3-amino-N-methylpyrazine-2-carboxamide]
50 to 1000 nM | CNC(=O)c1nc(-c2ccc(F)c(C)c2)cnc1N [compound 61, 3-amino-6-(4-fluoro-3-methylphenyl)-N-methylpyrazine-2-carboxamide]
1000 to 10000 nM | CNC(=O)c1nc(-c2cccnc2)cnc1N [compound 62, 3-amino-N-methyl-6-pyridin-3-ylpyrazine-2-carboxamide]
1000 to 10000 nM | CNC(=O)c1cccc(-c2cnc(N)c(C(=O)NC)n2)c1 [compound 64, 3-amino-N-methyl-6-{3-[(methylamino)carbonyl]phenyl}pyrazine-2-carboxamide]
1000 to 10000 nM | CNC(=O)c1nc(-c2cccc(C(C)=O)c2)cnc1N [compound 65, 6-(3-acetylphenyl)-3-amino-N-methylpyrazine-2-carboxamide]
> 10000 nM | CNC(=O)c1nc(-c2noc(-c3cccnc3)n2)cnc1N [compound 66, 3-amino-N-methyl-6-(5-pyridin-3-yl-1,2,4-oxadiazol-3-yl)pyrazine-2-carboxamide]
> 10000 nM | CNC(=O)c1nc(-c2noc(C3CCCCC3)n2)cnc1N [compound 68, 3-amino-6-(5-cyclohexyl-1,2,4-oxadiazol-3-yl)-N-methylpyrazine-2-carboxamide]
1000 to 10000 nM | CNC(=O)c1nc(-c2noc(C)n2)cnc1N [compound 71, 3-amino-N-methyl-6-(5-methyl-1,2,4-oxadiazol-3-yl)pyrazine-2-carboxamide]
> 10000 nM | CNC(=O)c1nc(-c2noc(-c3ccncc3)n2)cnc1N [compound 73, 3-amino-N-methyl-6-(5-pyridin-4-yl-1,2,4-oxadiazol-3-yl)pyrazine-2-carboxamide]
1000 to 10000 nM | Cc1cccc(-c2cnc(N)c(C(=O)NCCO)n2)c1 [compound 329, 3-amino-N-(2-hydroxyethyl)-6-(3-methylphenyl)pyrazine-2-carboxamide]
50 to 1000 nM | CNC(=O)c1nc(-c2cccc(C(=O)NCc3ccc(C(C)(C)C)cc3)c2)cnc1N [compound 353, 3-amino-6-{3-[({[4-(1,1-dimethylethyl)phenyl]methyl}amino)carbonyl]phenyl}-N-methylpyrazine-2-carboxamide]

Same assay, conditions: Table 11; inhibition given as IC50 class symbol

IC50 | SMILES
1000 to 10000 nM | CC(C)(C)c1nnc(-c2nc(-c3cccc(CO)c3)cnc2N)[nH]1 [compound 569, (3-{5-amino-6-[5-(1,1-dimethylethyl)-4H-1,2,4-triazol-3-yl]pyrazin-2-yl}phenyl)methanol]
1000 to 10000 nM | C[C@@H](NC(=O)c1cccc(-c2cnc(N)c(C(=O)N[C@H]3CCNC3)n2)c1)c1ccccc1 [compound 716, 3-amino-6-[3-({[(1R)-1-phenylethyl]amino}carbonyl)phenyl]-N-[(3S)-pyrrolidin-3-yl]pyrazine-2-carboxamide]
> 10000 nM | N=C(NNc1ccccc1)c1nc(-c2cccc(C(=O)N[C@H]3CCc4ccccc43)c2)cnc1N [compound 720, 3-{5-amino-6-[imino(2-phenylhydrazino)methyl]pyrazin-2-yl}-N-[(1S)-2,3-dihydro-1H-inden-1-yl]benzamide]
50 to 1000 nM | CC(C)(C)OC(=O)N1CC[C@H](NC(=O)c2nc(-c3cccc(C(=O)NCc4ccc(Cl)cc4)c3)cnc2N)C1 [compound 756, 1,1-dimethylethyl (3S)-3-[({3-amino-6-[3-({[(4-chlorophenyl)methyl]amino}carbonyl)phenyl]pyrazin-2-yl}carbonyl)amino]pyrrolidine-1-carboxylate]
